Columns and labels:
[1] = tested on: corticosteroid-induced cognitive impairment; experiment: Case report (Example 1): tianeptine given to a patient with cognitive side effects from prednisone therapy; assay type: in vivo, human
Excerpt: (§1) Patient was diagnosed with a medical condition known as pulmonary sarcoidosis in which immune cells (lymphocytes and macrophages) are abnormally activated and accumulate in the lung, progressively destroying the architecture and functional capacity of lung tissue. Treatment is necessary to prevent progression of the disease and loss of more pulmonary functional capacity. Standard treatment is with systemic corticosteroids due to the capacity of corticosteroids for suppressing immune function. Patient was started on prednisone 40 mg by mouth each morning, with a plan to taper the dose by 5 mg every two weeks until at 25 mg a day. After three months the level of response to corticosteroids would be assessed by repeat pulmonary function tests and chest x-ray. If the disease process was responsive to corticosteroids, the treatment would be continued to finish a full year on about 25 mg a day.
The memory disturbance was profound and sharply contrasted with patient's normal memory function. The “foggy” feeling was present all day long, and was similar to the feeling of having taken a sedating antihistamine like diphenhydramine (Benadryl). Patient found they could only concentrate with much effort, with rapidly developing mental fatigue preventing sustained efforts. Examples of memory impairment resulting from the prednisone were much like some of the memory disturbance seen in Alzheimer's dementia in which there is impairment in the process of consolidation of short term memories into long term memories, a process known to depend on intact hippocampal function.
Patient began tianeptine (Stablon) at 12.5 mg, one pill in the morning. Four days later, patient increased the dose to 12.5 mg twice a day, finally, two days after the prior increase, patient increased the dose to 25 mg each morning and 12.5 mg each evening. In the first several days taking tianeptine, patient noted the “foggy” feeling had gone away.
Although beginning tianeptine correlated with the rapid improvement in cognitive function, it was uncertain whether the tianeptine was responsible for the improvement.
There was the alternate possibility that patient was simply adjusting to the corticosteroids, with reduction in the cognitive side effects manifesting over the first several weeks after beginning corticosteroids. Nonetheless, patient continued to take the tianeptine. Also, it seemed possible that prednisone at 40 mg a day had been producing worse side effects than the lower doses of 35 mg, 30 mg, and 25 mg a day patient had tapered down to after starting the tianeptine.
Patient stopped tianeptine treatment two months later, tapering the dose over three days. Within about 2-3 days after the final dose of tianeptine, patient experienced the gradual emergence of the same cognitive side effects of the corticosteroids that patient had been experiencing in before initial tianeptine treatment including poor memory, extreme difficulty concentrating and sustaining mental effort, and the general “foggy” feeling once again pervading. This continued up for two weeks when patient restarted tianeptine treatment. […] Patient has continued on tianeptine 25 mg each morning and 12.5 mg each evening since then.

[2] = tested on: pulmonary sarcoidosis; assay type: in vivo, human; details: prednisone tapered from 40 mg to 25 mg a day
Excerpt: as §1
The memory disturbance was profound and sharply contrasted with patient's normal memory function. The “foggy” feeling was present all day long, and was similar to the feeling of having taken a sedating antihistamine like diphenhydramine (Benadryl). Patient found they could only concentrate with much effort, with rapidly developing mental fatigue preventing sustained efforts. […]

[3] = patient on prednisone, first several days taking tianeptine

Structure (SMILES)	time frame of effect after initiation of treatment ([1]; mitigation of corticosteroid cognitive side effects) [h]	effect of tianeptine in mitigating the side effects of the corticosteroids ([1]; off/on tianeptine episode, 25 mg each morning and 12.5 mg each evening)	ability to concentrate [1, 3]	episodic memory [1, 3]	"foggy" feeling ([1]; patient on prednisone, first several days taking tianeptine 12.5 mg up to 25 mg morning + 12.5 mg evening, oral)	time after restarting tianeptine to definite improvement ([1]; restart after two weeks off tianeptine, on prednisone) [h]	cognitive function after restarting tianeptine ([1]; three days after restart, on prednisone)	time after final dose of tianeptine to gradual emergence of the same cognitive side effects of the corticosteroids ([1]; tianeptine stopped (tapered over three days), prednisone 25 mg a day continued) [days]	follow-up pulmonary function tests [2]
CN1c2ccccc2C(NCCCCCCC(=O)O)c2ccc(Cl)cc2S1(=O)=O (stereo not drawn) [tianeptine, 7-[(3-chloro-6,11-dihydro-6-methyl-dibenzo[c,f][1,2]thiazepin-11-yl)amino] heptanoic acid S,S-dioxide]	24 to 72	large effect	appeared to normalize	significantly improved	had gone away	≤ 24	pretty much returned to normal baseline	2 to 3	
C[C@]12C=CC(=O)C=C1CC[C@@H]1[C@@H]2C(=O)C[C@@]2(C)[C@H]1CC[C@]2(O)C(=O)CO [prednisone]									indicated improvement

From patent US20210177862A1, “METHOD FOR TREATING NEUROCOGNITIVE DYSFUNCTION” (Tonix Pharma Holdings Limited, priority 2008, published 2021)
